From patent US12290596B2, “Compositions and methods for the treatment of opioid overdose” (priority 2021, dated 2025)

Experiment: Three-treatment crossover pharmacokinetics of IN nalmefene, three dosing regimens (Example 13)
Details: for half-life / AUC(0-t) / AUC(0-inf) / Cmax / Vd/F / concentration at 3 h / concentration at 4 h / concentration at 6 h / concentration at 8 h / concentration at 12 h / concentration at 18 h / concentration at 24 h / concentration at 48 h: human, plasma, other: intranasal (IN spray); for AUC(0-t) / AUC(0-inf) / Cmax / Vd/F: mean; for AUC(0-inf): AUCinf; for Vd/F: Vz/F; for concentration at 3 h / concentration at 4 h / concentration at 6 h / concentration at 8 h / concentration at 12 h / concentration at 18 h / concentration at 24 h / concentration at 48 h: T1 (3 mg IN, one spray in one nostril)
[1] = Treatment A (T1) 3 mg in one nostril
[2] = Treatment B (T2) 3 mg in each nostril (6 mg)
[3] = Treatment C (T3) 6 mg in one nostril
[4] = 3 mg, Treatment A (T1) 3 mg in one nostril
[5] = 6 mg, Treatment B (T2) 3 mg in each nostril (6 mg)
[6] = 6 mg, Treatment C (T3) 6 mg in one nostril

For `C=C1CC[C@@]2(O)[C@H]3Cc4ccc(O)c5c4[C@@]2(CCN3CC2CC2)[C@H]1O5` [Nalmefene, 17-cyclopropylmethyl-4,5α-epoxy-6-methylenemorphinan-3,14-diol], the “Dose-normalized Cmax lower after Treatment C (T3) compared to Treatment A (T1)” value (ANOVA) was “approximately 19%”, the “AUC0-2.5 min/D, mean” value [1] was 0.00276 ng·h/mL/mg and the “AUC0-5 min/D, mean” value [1] was 0.0206 ng·h/mL/mg. The “AUC0-7.5 min/D, mean” value [1] was 0.0728 ng·h/mL/mg, the “AUC0-10 min/D, mean” value [1] was 0.160 ng·h/mL/mg and the “AUC0-15 min/D, mean” value [1] was 0.393 ng·h/mL/mg. For the same molecule, the “AUC0-20 min/D, mean” value [1] was 0.639 ng·h/mL/mg, the “AUC0-30 min/D, mean” value [1] was 1.06 ng·h/mL/mg and the “AUCextrap, mean” value [1] was 4.22%. The “CL/F, mean” value [1] was 66.9 L/h, the “Cmax/D, mean” value [1] was 3.59 ng/mL/mg and the “AUC0-2.5 min/D, mean” value [2] was 0.0072 ng·h/mL/mg. The “AUC0-5 min/D, mean” value [2] was 0.0369 ng·h/mL/mg, the “AUC0-7.5 min/D, mean” value [2] was 0.106 ng·h/mL/mg and the “AUC0-10 min/D, mean” value [2] was 0.202 ng·h/mL/mg. For the same molecule, the “AUC0-15 min/D, mean” value [2] was 0.445 ng·h/mL/mg, the “AUC0-20 min/D, mean” value [2] was 0.691 ng·h/mL/mg and the “AUC0-30 min/D, mean” value [2] was 1.08 ng·h/mL/mg. The “AUCextrap, mean” value [2] was 3.61%, the “AUClast/D, mean” value [2] was 14.4 ng·h/mL/mg and the “CL/F, mean” value [2] was 69.2 L/h. The “Cmax/D, mean” value [2] was 3.70 ng/mL/mg, the “AUC0-2.5 min/D, mean” value [3] was 0.00455 ng·h/mL/mg and the “AUC0-5 min/D, mean” value [3] was 0.0244 ng·h/mL/mg. The “AUC0-7.5 min/D, mean” value [3] was 0.0803 ng·h/mL/mg, the “AUC0-10 min/D, mean” value [3] was 0.165 ng·h/mL/mg and the “AUC0-15 min/D, mean” value [3] was 0.374 ng·h/mL/mg. For the same molecule, the “AUC0-20 min/D, mean” value [3] was 0.588 ng·h/mL/mg, the “AUC0-30 min/D, mean” value [3] was 0.931 ng·h/mL/mg and the “AUCextrap, mean” value [3] was 4.18%. For the same molecule, the “AUClast/D, mean” value [3] was 13.7 ng·h/mL/mg, the “CL/F, mean” value [3] was 73.3 L/h and the “Cmax/D, mean” value [3] was 3.15 ng/mL/mg. The half-life (3 mg) was 11.4 h, the AUC(0-t) (3 mg, AUC0-5 min, Treatment A (T1) 3 mg in one nostril) was 0.0618 ng·h/mL and the AUC(0-t) (3 mg, AUC0-10 min, Treatment A (T1) 3 mg in one nostril) was 0.48 ng·h/mL. The AUC(0-t) (3 mg, AUC0-15 min, Treatment A (T1) 3 mg in one nostril) was 1.18 ng·h/mL, the AUC(0-t) (3 mg, AUC0-20 min, Treatment A (T1) 3 mg in one nostril) was 1.92 ng·h/mL and the AUC(0-t) (3 mg, AUC0-30 min, Treatment A (T1) 3 mg in one nostril) was 3.19 ng·h/mL. The AUC(0-t) (3 mg, AUC0-[…], Treatment A (T1) 3 mg in one nostril) was 0.219 ng·h/mL, the AUC(0-inf) [4] was 46.8 ng·h/mL and the AUC(0-t) (3 mg, AUClast, Treatment A (T1) 3 mg in one nostril) was 44.9 ng·h/mL. For the same molecule, the Cmax [4] was 10.8 ng/mL, the Vd/F [4] was 1090 L and the concentration at 3 h (3 mg, Max) was 6.01 ng/mL. For the same molecule, the concentration at 4 h (3 mg, Max) was 4.86 ng/mL, the concentration at 6 h (3 mg, Max) was 3.01 ng/mL and the concentration at 8 h (3 mg, Max) was 2.19 ng/mL. For the same molecule, the concentration at 12 h (3 mg, Max) was 1.51 ng/mL, the concentration at 18 h (3 mg, Max) was 0.851 ng/mL and the concentration at 24 h (3 mg, Max) was 0.785 ng/mL. For the same molecule, the concentration at 48 h (3 mg, Max) was 0.184 ng/mL, the concentration at 3 h (3 mg, Median) was 3.51 ng/mL and the concentration at 4 h (3 mg, Median) was 2.78 ng/mL. For the same molecule, the concentration at 6 h (3 mg, Median) was 2.07 ng/mL, the concentration at 8 h (3 mg, Median) was 1.34 ng/mL and the concentration at 12 h (3 mg, Median) was 0.985 ng/mL. It also gave a concentration at 18 h (3 mg, Median) of 0.581 ng/mL, a concentration at 24 h (3 mg, Median) of 0.37 ng/mL and a concentration at 48 h (3 mg, Median) of 0.088 ng/mL. The concentration at 12 h (3 mg, Min) was 0.727 ng/mL, the concentration at 18 h (3 mg, Min) was 0.37 ng/mL and the concentration at 24 h (3 mg, Min) was 0.261 ng/mL. It also gave a concentration at 48 h (3 mg, Min) of 0 ng/mL, a half-life (6 mg) of 11.3 h and an AUC(0-t) (6 mg, AUC0-5 min, Treatment B (T2) 3 mg in each nostril (6 mg)) of 0.222 ng·h/mL. It also gave an AUC(0-t) (6 mg, AUC0-5 min, Treatment C (T3) 6 mg in one nostril) of 0.146 ng·h/mL, an AUC(0-t) (6 mg, AUC0-10 min, Treatment B (T2) 3 mg in each nostril (6 mg)) of 1.21 ng·h/mL and an AUC(0-t) (6 mg, AUC0-10 min, Treatment C (T3) 6 mg in one nostril) of 0.988 ng·h/mL. For the same molecule, the AUC(0-t) (6 mg, AUC0-15 min, Treatment B (T2) 3 mg in each nostril (6 mg)) was 2.67 ng·h/mL, the AUC(0-t) (6 mg, AUC0-15 min, Treatment C (T3) 6 mg in one nostril) was 2.24 ng·h/mL and the AUC(0-t) (6 mg, AUC0-20 min, Treatment B (T2) 3 mg in each nostril (6 mg)) was 4.14 ng·h/mL. For the same molecule, the AUC(0-t) (6 mg, AUC0-20 min, Treatment C (T3) 6 mg in one nostril) was 3.53 ng·h/mL, the AUC(0-t) (6 mg, AUC0-30 min, Treatment B (T2) 3 mg in each nostril (6 mg)) was 6.46 ng·h/mL and the AUC(0-t) (6 mg, AUC0-30 min, Treatment C (T3) 6 mg in one nostril) was 5.58 ng·h/mL. The AUC(0-inf) [5] was 89.5 ng·h/mL, the AUC(0-inf) [6] was 85.7 ng·h/mL and the AUC(0-t) (6 mg, AUClast, Treatment B (T2) 3 mg in each nostril (6 mg)) was 86.2 ng·h/mL. For the same molecule, the AUC(0-t) (6 mg, AUClast, Treatment C (T3) 6 mg in one nostril) was 82.1 ng·h/mL, the Cmax [5] was 22.2 ng/mL and the Vd/F [5] was 1120 L. The Vd/F [6] was 1190 L.
